Measurements published in patent US20230044661A1, “VIABLE TISSSUE FORMS AND METHODS FOR MAKING AND USING SAME” (Musculoskeletal Transplant Foundation, priority 2019, published 2023).

Tests used:
[1] = test system: mismatched peripheral blood mononuclear cells (PBMCs); test: Two-way mixed lymphocyte reaction (MLR); format: cell-based, human; conditions: for Stimulation Index: vs same MLR + saline
Protocol: (§1) Cancellous and cortical bone tissue samples were obtained, processed and combined, to produce LyoGraft Bone Grafts. From each donor, cancellous tissue samples comprising cancellous bone were recovered and processed to provide cancellous granules, and cortical bone tissue samples were recovered and processed to provide cortical fibers. Quantities of cancellous granules and cortical fibers derived from the same donor were measured and combined to produce three test samples per donor, each of which contained about 40 wt % cancellous granules and about 60 wt % cortical fibers, the wt % being based on the total weight of the combined cancellous granules and cortical fibers of each sample. The total weights of the test samples (i.e., each comprising both cancellous granules and cortical fibers) ranged from 1.3 g to 1.6 g. The test samples were preserved after contact with protectants in solution, in accordance with the methods described hereinabove. Peripheral blood mononuclear cells (PBMCs) were procured from three unique blood donors in order to test for a one-way and two-war mixed lymphocyte reaction (MLR) assay. In a one-way set up, PBMCs are exposed to a test article, the lyopreserved tissue samples, and PBMC stimulation or lack thereof is assessed. In a two-way set up, mismatched blood donors are exposed to one another, and an ongoing reaction is stimulated. This ongoing reaction is then put in presence of a test article, the lyopreserved tissue samples, and stimulation or inhibition of this ongoing reaction are assessed. […] Two-way MLR testing was performed on three lyopreserved donor lots to assess the inhibitory or stimulatory effects of an ongoing/developing immunogenic reaction between two mismatched blood donors.
• 19. Cells (PBMC) from each of two donors were added to wells of 96-well round bottom culture plates. • 20. Only cells from one of the two donors were stained with tracking dye, CPD-670, considered the responder cells. The other donor cells were left unstained, considered the inducer cells. • 21. Assay was repeated using 3 different combinations of responder/inducer cells. • 22. The amount of proliferating responder cells indicates an immune reaction induced by the mismatched inducer cells and is shown as cells with reduced dye content after six days of co-incubation. • 23. Virtuos samples are prepared by adding 30 mL of sterile saline USP to smaller units (Donor 1 and 3) or filling 2 oz jar to the top (60 mL) with saline for larger units (Donor 2), incubating for 2 mins, decanting, and tap-drying with sterile gauze. • 24. 60 mg of lyopreserved tissue per donor and 20 uL of saline were added in triplicate for each PBMC donor in 96 well plates. • 24.1 Saline is used as a negative control. • 25. PBMCs from two mismatched blood donors were added to each test group (250K cells per blood donor) and incubated for 5 days at 37° C. in 5% CO2 in humidifier incubator. • 26. Concanavalin A (ConA) was used as a stimulation positive control to ensure that cells (PBMC) were in good condition to proliferate. • 27. Stimulation Index (SI) was calculated as proliferating cell percentage from wells with two mismatched donors with lyopreserved tissue divided by proliferating cell percentage from wells with the same mismatched donor cells treated with saline.

[2] = test system: peripheral blood mononuclear cells (PBMCs); test: One-way mixed lymphocyte reaction (MLR); format: cell-based, human; conditions: for Proliferated cells (% of all CPD stained), Average: 60 mg tissue, 250K cells, 5 days; for Stimulation Index: vs PBMCs + saline
Protocol: as §1
• 11. Blood was obtained from three unique donors and PBMCs were isolated. • 12. PBMCs were stained with a tracking dye, CPD-670, and added to 96-well round bottom culture plates for one-way MLR assay. • 12.1 This dye is used to determine whether or not an immune response has been induced. If there is an immune reaction, cells will proliferate in response to a stimulator, in this case lyopreserved tissue, and dilute the CPD-670 stain. The dilution of the stain decreases the fluorescence signal which will be used to measure any differences across test samples compared to the saline negative control and concanavalin A positive control. • 13. Lyopreserved samples are prepared by adding 30 mL of sterile saline USP to smaller units (Donor 1 and 3) or filling 2 oz jar to the top (60 mL) with saline for larger units (Donor 2), incubating for 2 mins, decanting, and tap-drying with sterile gauze. • 14. 60 mg of lyopreserved tissue per donor and 20 uL of saline were added in tripliciate for each PBMC donor in 96 well plates. • 14.1 Saline is used as a negative control. • 15. PBMCs were added to each test group (250K cells) and incubated for 5 days at 37° C. in 5% CO2 in humidifier incubator. • 16. To calculate % proliferation, cells with decreased dye fluorescent signal were compared to the total number of positively stained cells. • 17. Concanavalin A (ConA) was used as a stimulation positive control to ensure that cells (PBMC) were in good condition to proliferate. • 18. Stimulation Index (SI) was calculated as proliferating cell percentage from wells with PBMCs+lyopreserved tissue sample divided by proliferating cell percentage from PBMCs+saline.

[3] = Donor A-CPD + Donor B-Unstained MLR
[4] = Donor B-CPD + Donor C-Unstained MLR
[5] = Donor C-CPD + Donor A-Unstained MLR

Substance: Concanavalin A [ConA]
- Proliferated cells (% of all CPD stained), Average [1, 3]: 57.8%
- Stimulation Index [1, 3]: 8.1
- Proliferated cells (% of all CPD stained), Average [1, 4]: 39.5%
- Stimulation Index [1, 4]: 5.3
- Proliferated cells (% of all CPD stained), Average [1, 5]: 50.6%
- Stimulation Index [1, 5]: 4.9
- Proliferated cells (% of all CPD stained), Average ([2]; PBMC Donor A): 45.2%
- Stimulation Index ([2]; PBMC Donor A): 28.0
- Proliferated cells (% of all CPD stained), Average ([2]; PBMC Donor B): 61.5%
- Stimulation Index ([2]; PBMC Donor B): 100.3
- Proliferated cells (% of all CPD stained), Average ([2]; PBMC Donor C): 60.6%
- Stimulation Index ([2]; PBMC Donor C): 155.4
